In patent US9408828B2, “(+)-3′-angeloyloxy-4′-keto-3′,4′-dihydroseselin for treating inflammation” (Hong Kong Baptist University, priority 2014, dated 2016):

Experiments:
DSS-induced colitis = assay: Chronic DSS-induced colitis in mice (body weight, DAI, colon length, histology); type: in vivo, C57BL/6 mice
Text: 6-week-old male C57BL/6 mice weighing 18-20 g are purchased from the Laboratory Animal Services Center, the Chinese University of Hong Kong. The study protocols are approved by the committee for Care of Laboratory Animals in the School of Chinese Medicine at the Hong Kong Baptist University. The animals are divided into six groups (8-10 each group): control group (mice received drinking water and control diet), DSS-treated group (mice received 2.0% DSS in drinking and control diet), positive control group (mice received 2.0% DSS in drinking and ip, 300 mg/kg/day of sulfasalazine), Pd-Ib treatment groups will be given different dosed of Pd-Ib (mice received 2.0% DSS in drinking and i.p., 30, 60, or 120 mg/kg/day, respectively). As depicted in experiment design shown in FIG. 9, the mice are given tap water for 6 days, and then be divided into 6 groups. DSS is dissolved in distilled water at a concentration of 2% (w/v) and administered to the mice. The first day and the last day of DSS treatment are designated as day 7 and day 11, respectively. Mice are marked and checked daily for body weight. On day 12, body weight, stool consistency, and gross bleeding of each mouse are assessed, and animals showing body weight loss, diarrhea, and bleeding are selected for further analysis. All colitis mice are then interventions once daily for seven days, with eight mice in each group. The DSS model group is administered with tap water as negative control; while sulfasalazine is given as positive control (i.p., 300 mg/kg/day) and Pd-Ib treatment groups are given different doses of Pd-Ib (i.p., 30, 60, or 120 mg/kg/day, respectively). In parallel, a vehicle control group is also set up to receive drinking tap water without DSS throughout the entire experimental period. On day 19, after the mice are killed under anesthesia induced by pentobarbital sodium (i.p., 0.65 g/kg), the length of the large intestine is measured. All portions are stored at −80° C. for biochemical assays. The DAI is determined by scoring changes in the body weight, diarrhea, colon length, and bleeding. In brief, body weight, stool consistency, colon length and bleeding in the stool are monitored daily for determination of DAI. At the end of the experiment, mice are killed, and the colon is dissected from each mouse, and the length of which is measured from the ileocecal junction to the anal verge. The colons are opened longitudinally, gently washed with ice-cold PBS, fixed in 4% paraformaldehyde overnight, and embedded in paraffin. Five-micro-meter sections are stained with hematoxylin/eosin according to a standard procedure to evaluate colonic damage. Colitis is induced in all groups except the control group. Pd-Ib and sulfasalazine are administered to mice from day 6 to day 12. The change in body weight is taken as the difference between the body weight before induction of colitis and that immediately before sacrifice on day 13. The DAI score is determined by combining scores of (i) body weight loss, (ii) stool consistency, and (iii) stool bleeding. On day 13, the mice are sacrificed, and the colon lengths are measured. Data are expressed as mean±SEM, n=8 (^###p<0.001, compared with the control group; *p<0.05, **p<0.01, ***p<0.001, compared with DSS model group).

Myeloperoxidase (MPO) = assay: Neutrophil infiltration in colon tissue (MPO assay); type: in vivo, C57BL/6 mice; conditions: DSS-induced colitic mice, Pd-Ib treatment groups
Procedure: Myeloperoxidase (MPO) is an enzyme mainly released by neutrophil, and its activity is directly associated with the severity of inflammation in a given tissue. In this example, MPO activity is measured as described in our previous study. Briefly, the colon tissues kept at −80° C. are weighed and homogenized in 0.5% hexadecyltrimethylammonium bromide 1 mL per 100 mg of colon tissue. The homogenates are centrifuged at 19 000 rpm at 4° C. for 15 min. Aliquots of 80 iL supernatant are mixed with 120 μL potassium phosphate buffer (50 mmol, pH 6.0) with 0.0005% o-dianisidine dihydrochloride and 0.1% hydrogen peroxide. Changes in optical density are measured at 460 nm at room temperature (25° C.). MPO activity is calculated from the rate of optical density changes and one unit of MPO activity is defined as the amount of enzyme present that produced a change in optical density of […] at 25° C. in the final reaction volume. The results are normalized to the wet weight of colon tissue and quantified as units/mg tissue.
Colitis is induced in all groups except the control group. Pd-Ib and sulfasalazine are administered to mice from day 6 to day 12. On day 13, the mice are sacrificed, and MPO activity is determined in colon homogenates. Data are expressed as mean±SEM, n=8 (*p<0.05, **p<0.01, ***p<0.001, compared with DSS model group).

With `C/C=C(\C)C(=O)OC1C(=O)c2c(ccc3ccc(=O)oc23)OC1(C)C` (single isomer, unassigned; (+)) [Pd-Ib, (+)-3′-Angeloyloxy-4′-keto-3′,4′-dihydroseselin] the body weight loss (DSS-induced colitis; 30 mg/kg/day) was “mildly effective in preventing body weight loss”, the body weight loss (DSS-induced colitis; 60 mg/kg/day) was “mildly effective in preventing body weight loss” and the body weight loss (DSS-induced colitis; 120 mg/kg/day, compared with DSS model group after 10 days (p<0.05)) was “recover the body weight loss significantly”. For the same molecule, the DAI score (DSS-induced colitis; 120 mg/kg/day, versus untreated mice (p<0.05)) was “significantly lower”, the “shortening of colon length” value (DSS-induced colitis; 30, 60, 120 mg/kg/day (p<0.05, p<0.001)) was “rectified after administration with Pd-Ib at indicated concentration levels in a dose-dependent manner” and the “histological manifestation of colon tissue sections” value (DSS-induced colitis; 30, 60, 120 mg/kg/day for seven days, compared with DSS group) was “far fewer infiltrating cells, a significantly lower degree of mucosal injury, and less edema”. The “MPO activity in colon” value (Myeloperoxidase (MPO)) was “suppresses MPO activity significantly”.
